According to PMC7911889 (Viruses, 2021):

Molecular target: SARS-CoV-2 3CL^pro (Severe acute respiratory syndrome coronavirus 2, UniProt P0DTD1)
Type: cell-based

With GRL-0496 the “Effect on luciferase reporter activity / 3CL^pro inhibition (in words)” value was “clearly inhibited SARS-CoV-2 3CL^pro”.
